# Literature values, collected in patent publication US7271157B2, “A1 adenosine receptor agonists” (CV Therapeutics, Inc., priority 2004, dated 2007).
# Assays:
# [1] = test system: seizures induced by DMCM; conditions: experimental models of epilepsy
# [2] = biological target: T1, A1-adenosine receptor (Homo sapiens, UniProt P30542)
# T1 sequence (P30542 1-326): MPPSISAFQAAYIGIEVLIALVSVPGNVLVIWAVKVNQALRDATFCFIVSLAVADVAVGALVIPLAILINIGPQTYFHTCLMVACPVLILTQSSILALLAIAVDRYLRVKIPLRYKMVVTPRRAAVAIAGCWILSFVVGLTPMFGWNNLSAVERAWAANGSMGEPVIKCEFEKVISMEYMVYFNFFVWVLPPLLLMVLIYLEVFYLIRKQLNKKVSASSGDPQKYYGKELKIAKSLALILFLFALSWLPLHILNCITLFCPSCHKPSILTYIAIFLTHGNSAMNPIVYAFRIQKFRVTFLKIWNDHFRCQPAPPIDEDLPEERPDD
structure (smiles),measurement,setting,value
Nc1ncnc2c1ncn2[C@@H]1O[C@H](CO)[C@@H](O)[C@H]1O [adenosine],half-life,,less than 10 sec
Cc1ccccc1CNc1ncnc2c1ncn2[C@@H]1O[C@H](CO)[C@@H](O)[C@H]1O [metrifudil],anticonvulsant activity against DMCM-induced seizures,[1],potent anticonvulsant
"OC1CCCC1Nc1ncnc2c1ncn2[C@@H]1O[C@H](CSc2ccccc2F)[C@@H](O)[C@H]1O (mixture of isomers) [(4S,5S,2R,3R)-5-[(2-fluorophenylthio)methyl]-2-{6-[(2-hydroxycyclopentyl)amino]-purin-9-yl}oxolane-3,4-diol]",A1-adenosine receptor agonist character and selectivity,[2],highly selective partial A1-adenosine receptor agonist
